These results are taken from a melting point compilation (Tetko et al.; mined from patent text by program, amines drawn as free bases though some values may be those of a salt).

Take `Cn1cc(-c2cccc(N3CCc4c(sc5c4CCCC5)C3=O)c2CO)nc(Nc2cnn(CCO)c2)c1=O`: the melting point (in general, the temperature of the solid-liquid transition) fell in the range of 198 to 199 °C. In the case of `CN1C(=O)C(C)(Cc2ccccc2)N(C)C(=O)C1C1NC(=O)c2cccc(F)c21` (stereo unspecified) it was 183 to 185 °C; in that of `Cc1cc(C=O)ccc1C(=O)NCc1ccccn1`, 79.5 to 83 °C; in that of `CN(C)CCCC(=O)N1CCOc2cc3ncc(C#N)c(Nc4ccc(F)c(Cl)c4)c3cc21`, 165 °C. Under `COc1cccc2c1[nH]c(=O)n2C(=O)Oc1ccccc1` stands 204 to 205 °C. Under `Cn1cc(C(=O)NCc2ccc(Cl)cc2)c(=O)c2cc(CC3CCOCC3)ccc21` stands 219 to 221 °C; under `CN1C(=O)N(c2c(Cl)cccc2Cl)Cc2cnc(Nc3ccccc3)nc21`, 222 to 224 °C; under `COc1nc(-n2cc(C(=O)O)c(=O)c3cc(F)c(F)c(Cl)c32)c(F)cc1F`, 205 to 210 °C.

`c1ccc2c(c1)CCN(CCSc1ccnc(CSc3nc4ccccc4[nH]3)c1)C2` registered a melting point of 125 to 127 °C. For the compound `COc1ccccc1CN[C@H]1CCCN(C)[C@H]1c1ccccc1` (relative stereo), the melting point was 58 °C. Under `Cc1cc(Cl)cc2nc3c(=O)[nH][nH]c(=O)c3c(O)c12` stands 117 to 119 °C. Under `Cc1c(NC(=O)CC(C)(C)C)cc2c(c1C)OC(C)(C)C2c1ccc(C=O)cc1` (stereo unspecified) stands 169 to 170 °C; under `CCCCCCCCCCC/C=C\c1ccc(C=CC(=O)OC)cc1`, 60 to 62 °C. Under `COc1cc2ncnc(Nc3cccc(Br)c3)c2cc1OC(C)=O` stands 238 °C; under `COC(=O)Cc1ccc(CNC(=O)C2Cc3ccccc3N2S(=O)(=O)c2ccc(-c3ccc(F)cc3F)cc2)cc1` (stereo unspecified), 68 to 72 °C; under `Cc1nnc(-c2ccc3ncc(-c4ccc(S(C)=O)cc4)n3c2)o1` (stereo unspecified), 190 °C. On to `CC(C)(C)OC(=O)C(C(=O)c1ccc(NS(C)(=O)=O)cc1Cl)C(=O)C1CC1` (stereo unspecified), for which the melting point is 137 to 140 °C. In the case of `Cc1cc(C)c2cccc(OCc3c(Cl)ccc(S(=O)(=O)N4CCC[C@H]4C(=O)NCCCN(C)C(=O)OC(C)(C)C)c3Cl)c2n1` it was 80 °C. On to `CCOC(=O)CCc1ccc2c3ccccc3n(Cc3ccccc3)c2c1C`, for which the melting point fell in the range of 114 to 115 °C. Take `Cc1[nH]c2ccccc2c1CCCN1CCC(c2noc3ccc(F)cc23)CC1`: the melting point was 144 to 146 °C. Under `CCC(=O)Nc1ccc(-c2ccncc2)cc1` stands 179 to 181 °C; under `COc1cc(N)c(Cl)cc1C(=O)CC(O)c1ccncc1` (stereo unspecified), 181 to 183 °C. Under `COc1cc2ncnc(Nc3ccc4[nH]ccc4c3)c2cc1I` stands 260 to 267 °C. Under `CCCCN1CCC(CCC(=O)c2cc(Cl)c(N)nc2OC)CC1` stands 86 to 87 °C; under `CCCCc1cn(CC(C)(C)C)c(=O)n1Cc1ccc(-c2ccccc2-c2nnn[nH]2)nc1`, 194 to 195 °C; under `CCC1Cc2cc(OCC#N)c(Cl)c(Cl)c2C1=O` (stereo unspecified), 139 to 141 °C.

The compound `CCC(Oc1ccc(Cl)cc1)C(=O)OC1CC(O)C=C2C=CC(C)C(CCC3CC(O)CC(=O)O3)C21` (mixture of isomers) had a melting point of 140 to 142 °C.

For `CCc1nc(CC)c(CO)c(-c2ccccc2)c1CC`, the melting point stood at 100 °C. In the case of `CN(C)Cc1cccc(-c2cc3c4c(ccn4C(=O)CNC3)c2)c1` it was 98 to 100 °C; in that of `CS(=O)(=O)Nc1ccc(-n2nc(C(F)(F)F)nc2-c2ccc(S(C)(=O)=O)cc2)cc1`, 188 °C. Under `Cc1ccc(C)n1CCNC(=O)c1ccc(Cl)cc1` stands 104 to 105 °C. Under `COC(=O)c1ccc(-c2n[nH]c3c2Cc2ccccc2-3)cc1` stands 224 to 226 °C. For the compound `COc1cccc(SSc2cccc(OC)c2S(N)(=O)=O)c1S(N)(=O)=O`, the melting point is 263 °C. Under `CCN(CC)CCOc1ccc(-c2oc3ccccc3c2C(=O)c2cc(C)c(OC)c(C)c2)cc1` stands 130 to 133 °C. Under `CCn1cc(C(=O)O)c(=O)c2cnc(N3CCN(CC(C)O)CC3)nc21` (stereo unspecified) stands 214 to 216 °C; under `C1=Cc2ccccc2C=CN1`, 186 to 190 °C; under `CS(=O)c1ncccc1C(=O)c1cnoc1C1CC1` (stereo unspecified), 148 to 152 °C.

Consider `CN(C)c1ccc(-c2c(N3CCCC3C(=O)OC(C)(C)C)c(=O)c2=O)cc1` (stereo unspecified), for which the melting point was found to be 115 °C.

For the compound `COc1cc(COc2cc(N)c(Cl)cc2C(=O)CCCCN2CCC(C)CC2)cc(OC)c1`, the melting point was in the range of 136 to 137 °C. In the case of `Cc1cc2c(cc1C)C(c1ccccc1)(C(F)(F)C(F)(F)F)c1cc3c(cc1O2)Oc1cc(C)c(C)cc1C3(c1ccccc1)C(F)(F)C(F)(F)F` (stereo unspecified) it was 228 to 233 °C. `Oc1ccc(Nc2ccncc2)cc1` came in with a melting point of 246 to 248 °C. In the case of `CN(Cc1ccccc1)C(=O)c1cnc2c3c(c(F)cc2c1)C(=O)C(C(=O)O)C=N3` (stereo unspecified) it was 168 to 171 °C. Under `CC(=O)SCC(C(=O)N1CCC(=C2c3ccc(Cl)cc3CCc3cccnc32)CC1)c1ccccc1` (stereo unspecified) stands 92.7 to 93 °C. In the case of `O=c1[nH]c2cc(Cl)cc(Cl)c2c(O)c1Sc1ccc(O)cc1` it was above 300 °C.

For the compound `Cn1cnc2c(ccc3[nH]cc(CCN)c32)c1=O`, the melting point was in the range of 279 to 285 °C.

`Cc1ccccc1NC(=NC#N)NC(NC(=O)CCCc1ccccc1)C(C)(C)C` (stereo unspecified) returned a melting point of 153 to 154 °C. `Cc1onc(NS(=O)(=O)c2cccc3ccccc23)c1Br`: the melting point lay within 167 to 170 °C.

The compound `CCCCCCCCCC(N)CCCCCCCCC(N)CCCCCCCCC` (stereo unspecified) yielded a melting point of 33 to 37 °C. In the case of `CCOC(=O)CCCCCCCCCCNC(=O)c1cc(O)ccc1O` it was 72 to 74 °C; in that of `CCOC(=O)c1ccc(OCCC2CCc3c(c(OC)c(OC)c(OC)c3OC)CC2)cc1`, 129 to 131 °C; in that of `Cc1cc(C)n(-c2cncc(Nc3ccc(Cl)cc3)n2)n1`, 157 to 159 °C.

`Fc1ccc(C#Cc2ccc(F)cc2)cc1` came in with a melting point of 95 to 96 °C.

The compound `CCc1nc2cc(S(C)(=O)=O)c(Cl)cc2n1-c1ccc(CCNC(=O)NS(=O)(=O)c2ccc(C)cc2)cc1` returned a melting point of 105 to 118 °C. In the case of `CN(C)C=C(C=O)c1ccccc1Cl` it was 86.5 to 88.5 °C; in that of `CCN(CC)CCCNC(=O)Cn1ncc(-c2ccc(C#N)cc2)c1-c1ccccc1`, 100 to 101 °C. In the case of `C[Si](C)(C)C#Cc1ccc([N+](=O)[O-])cc1` it was 95 to 100 °C; in that of `O=C1c2c(Cl)cccc2-n2cnc(-c3noc(C(F)(F)F)n3)c2[C@@H]2CCCN12`, 220 to 221 °C. In the case of `CCOC(=O)c1cc2c(OC)ccnc2[nH]1` it was 195 to 197 °C; in that of `COC(=O)c1cccc(OC2CCOc3ccc(OCc4ccccc4)cc3C2=O)c1` (stereo unspecified), 134 to 136 °C; in that of `O=C1CC(O)CC(C=CC2=C(c3ccc(F)cc3)CC3CCC2C3)O1` (stereo unspecified), 123 to 127 °C. The compound `CN(C)S(=O)(=O)c1ccc(F)cc1` returned a melting point of 40 to 43 °C.
